Marks after values point to notes of the source that are not given here.
Columns and labels:
[1] = test system: ischemia-reperfusion model; assay: Heart weight (body weight ratio) in rat ischemia-reperfusion model; type: in vivo; settings: for body weight ratio of heart weight: left atrium / body weight ratio of heart weight: left ventricle / body weight ratio of heart weight: right atrium / body weight ratio of heart weight: right ventricle: male SD rats, ischemia-reperfusion, 30 mg/kg per day oral in corn oil, 5 weeks, average; for effect on increase in heart weight (edema), in words: rat ischemia-reperfusion model, 30 mg/kg per day oral, vs. control group
Experimental: (§1) Male SD rats (9-week-old, Japan SLC Inc.) were divided into four groups. Each rat was anesthetized with pentobarbital sodium (35-45 mg/kg, i.p.), and fixed at the dorsal position. A tracheal tube was orally inserted into the airway, artificial respiration was performed by an artificial respirator for small animals, and the medial wall of the thorax was opened to expose the heart. In three groups, the left anterior descending artery (LAD) was obstructed for 30 min with a surgical needle with a thread. At this time, an electrocardiogram was measured via an amplifier for electrocardiogram, and the presence or absence of occlusion was confirmed based on the changes in the ST electrical potential and cardiac muscle color. An ischemia-reperfusion model was prepared by reperfusing the blood flow after 30 min from the occlusion. Thereafter, in all groups, the thorax was closed, sutured, and disinfected with a veterinary Isodine solution.
(§2) The following samples were administered to each group for 1 week before the above-mentioned operation and 4 weeks after the operation (total 5 weeks).
(§3) Group for which occlusion treatment was performed, and oxidized coenzyme Q10 dissolved in corn oil was orally administered at a dosage of 30 mg/kg per day based on the amount of oxidized coenzyme Q10
(§4) Group for which occlusion treatment was performed, and […] dissolved in corn oil was orally administered at a dosage of 30 mg/kg per day based on the amount of reduced coenzyme Q10
After cardiac function evaluation, the animals were euthanized by dislocation of cervical spine under anesthesia, and the heart was removed. The right atrium weight, left atrium weight, right ventricle weight, left ventricle weight and overall weight of the heart (weight of both atria+weight of both ventricles) were measured. For evaluation, the body weight ratio of the right atrium weight, the body weight ratio of the left atrium weight, the body weight ratio of the right ventricle weight and the body weight ratio of the left ventricle weight were calculated.

[2] = test system: ischemia-reperfusion model; assay: Cardiac function evaluation (left ventricular end-diastolic pressure) in rat ischemia-reperfusion model; type: in vivo; settings: for left ventricle end-diastolic pressure: male SD rats, LAD occlusion 30 min then reperfusion, 30 mg/kg per day oral in corn oil, 1 week before and 4 weeks after operation, mean ± standard error; for effect on elevation of the end-diastolic pressure (cardiac function), in words: rat ischemia-reperfusion model, 30 mg/kg per day oral, vs. control group
Experimental: as §1, §2, §3, §4
After measuring the body weight on the next day of the final administration, the rats were fixed at the dorsal position under pentobarbital sodium (25-35 mg/kg, i.p.) anesthesia, and a mirror catheter was inserted into the right carotid artery. After confirmation of the stable condition, the left ventricle internal pressure wave pattern was led to a biological electric amplifier to enlarge same, and the left ventricular end-diastolic pressure (LVEDP) was measured.

rats = settings: 1200 mg/kg/day consecutive administration for 52 weeks; cited from earlier work
[3] = Absorbability evaluation: total coenzyme Q10 in plasma and heart by HPLC; settings: male SD rats, 100 mg/kg oral in soybean oil once a day for 4 weeks; average, N=3
Experimental: Male SD rats (5-week-old, Japan SLC Inc.) were each orally administered with soybean oil (control group), oxidized coenzyme Q10 (100 mg/kg) dissolved in soybean oil (oxidized coenzyme Q10 group) and reduced coenzyme Q10 (containing 1 wt % of oxidized coenzyme Q10; 100 mg/kg) dissolved in soybean oil (reduced coenzyme Q10 group) once a day for 4 consecutive weeks (each group N=3). After completion of the administration, blood samples were taken and the heart was removed, and the total amount of coenzyme Q10 (total amount of oxidized coenzyme Q10 and reduced coenzyme Q10) in plasma and heart was quantified by HPLC according to a conventional method.

Row | Compound | body weight ratio of heart weight: left atrium [1] | body weight ratio of heart weight: left ventricle [1] | body weight ratio of heart weight: right atrium [1] | body weight ratio of heart weight: right ventricle [1] | effect on increase in heart weight (edema), in words [1] | left ventricle end-diastolic pressure [2] [mmHg] | effect on elevation of the end-diastolic pressure (cardiac function), in words [2] | toxic influence in chronic toxicity test (rats) | total coenzyme Q10 concentration in heart [3] [µg/mL] | total coenzyme Q10 concentration in plasma [3]
1 | COC1=C(OC)C(=O)C(C/C=C(\C)CC/C=C(\C)CC/C=C(\C)CC/C=C(\C)CC/C=C(\C)CC/C=C(\C)CC/C=C(\C)CC/C=C(\C)CC/C=C(\C)CCC=C(C)C)=C(C)C1=O [oxidized coenzyme Q10, reference compound] | 0.081 | 1.823 | 0.135 | 0.498 | suppressed increase in the heart weight in all parts | 8.3 ± 0.7 | did not provide an ameliorating effect | did not show a toxic influence | – | –
2 | COc1c(O)c(C)c(C/C=C(\C)CC/C=C(\C)CC/C=C(\C)CC/C=C(\C)CC/C=C(\C)CC/C=C(\C)CC/C=C(\C)CC/C=C(\C)CC/C=C(\C)CCC=C(C)C)c(O)c1OC [reduced coenzyme Q10] | 0.089 | 1.879 | 0.146 | 0.508 | suppressed increase in the heart weight in all parts | 5.7 ± 0.4 | significant suppression of elevation of the end-diastolic pressure | – | 9.33 | 0.39* μg/ml

— patent US20090246185A1, “CARDIAC DYSFUNCTION-AMELIORATING AGENT OR CARDIAC FUNCTION-MAINTAINING AGENT” (KANEKA CORPORATION, priority 2006, published 2009)
